Assay results: patent publication US20260262643A1, “HERBICIDAL BENZOXAZINES” (FMC CORPORATION, priority 2022, published 2026)
Where two headings read alike, the source gives them in different places.

How the values were obtained:
ducksalad = experiment: Test B flooded paddy test; assay type: in vivo, Heteranthera limosa; conditions: Heteranthera limosa, 312 h, 250 g ai/ha, Flood, 13 days, 0 to 100 scale (0 no effect, 100 complete control); read-out: Plant response rating, Ducksalad
In short: (§1)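 Flooded to 3 cm at treatment time, 2-leaf plants got the test compound applied straight into the paddy water. They then stayed under constant flood in a greenhouse for 13 days. Ratings used a 0 to 100 visual scale.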

corn = experiment: Test A postemergence; assay type: in vivo, Zea mays; conditions: Zea mays, post-emergence, 240 h, postemergence, 10 days, 0 to 100 scale (0 no effect, 100 complete control); for Corn plant response rating (crop injury, 0 = no effect, 100 = complete kill) at 500 g/ha: 500 g ai/ha
In short: (§2)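 Loam/sand soil; pre-em directed soil spray at planting, post-em spray at 1–2 leaf (2–10 cm). Compound in non-phytotoxic solvent + surfactant. Greenhouse 10 d; visual injury vs untreated, 0 = no effect, 100 = complete control.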

pigweed, palmer = experiment: Test A postemergence; assay type: in vivo, Amaranthus palmeri; conditions: Amaranthus palmeri, post-emergence, 240 h, postemergence, 10 days, 0 to 100 scale (0 no effect, 100 complete control); for pest or weed control at 500 g/ha: 500 g ai/ha, visual injury, read-out: Plant response rating, Pigweed, Palmer
In short: as §2

kochia [1] = experiment: Test A preemergence; assay type: in vivo, Bassia scoparia; conditions: Bassia scoparia, pre-emergence, 240 h, read-out: Plant response rating, Kochia; for pest or weed control at 125 g/ha: 125 g ai/ha; for pest or weed control at 500 g/ha: 500 g ai/ha
In short: as §2

rice = experiment: Test B flooded paddy test; assay type: in vivo, Oryza sativa; conditions: Oryza sativa, 312 h; 250 g ai/ha, Flood, 13 days, 0 to 100 scale (0 no effect, 100 complete control); read-out: Plant response rating, Rice
In short: as §1

oat, wild = experiment: Test A preemergence; assay type: in vivo, Avena fatua; conditions: Avena fatua, pre-emergence, 240 h, read-out: Plant response rating, Oat, Wild; for pest or weed control at 125 g/ha: 125 g ai/ha; for pest or weed control at 500 g/ha: 500 g ai/ha
In short: as §2

kochia [2] = experiment: Test A postemergence; assay type: in vivo, Bassia scoparia; conditions: Bassia scoparia, post-emergence, 240 h, postemergence, 10 days, 0 to 100 scale (0 no effect, 100 complete control); for pest or weed control at 125 g/ha: 125 g ai/ha; for pest or weed control at 500 g/ha: 500 g ai/ha
In short: as §2

blackgrass [3] = experiment: Test A postemergence; assay type: in vivo, Alopecurus myosuroides; conditions: Alopecurus myosuroides, post-emergence, 240 h; for pest or weed control at 125 g/ha: 125 g ai/ha; for pest or weed control at 500 g/ha: 500 g ai/ha
In short: as §2

foxtail, giant = experiment: Test A preemergence; assay type: in vivo, Setaria faberi; conditions: Setaria faberi, pre-emergence, 240 h, read-out: Plant response rating, Foxtail, Giant; for pest or weed control at 125 g/ha: 125 g ai/ha; for pest or weed control at 500 g/ha: 500 g ai/ha
In short: as §2

goosegrass = experiment: Test A preemergence; assay type: in vivo, Eleusine indica; conditions: Eleusine indica, pre-emergence, 240 h, read-out: Plant response rating, Goosegrass; for pest or weed control at 125 g/ha: 125 g ai/ha; for pest or weed control at 500 g/ha: 500 g ai/ha
In short: as §2

horseweed = experiment: Test A postemergence; assay type: in vivo, Erigeron canadensis; conditions: Erigeron canadensis, post-emergence, 240 h, postemergence, 10 days, 0 to 100 scale (0 no effect, 100 complete control); for pest or weed control at 125 g/ha: 125 g ai/ha; for pest or weed control at 500 g/ha: 500 g ai/ha
In short: as §2

barnyardgrass = experiment: Test B flooded paddy test; assay type: in vivo, Echinochloa crus-galli; conditions: Echinochloa crus-galli, 312 h, 250 g ai/ha, Flood, 13 days, 0 to 100 scale (0 no effect, 100 complete control); read-out: Plant response rating, Barnyardgrass
In short: as §1

ryegrass, Italian = experiment: Test A preemergence; assay type: in vivo, Lolium multiflorum; conditions: Lolium multiflorum, pre-emergence, 240 h, read-out: Plant response rating, Ryegrass, Italian; for pest or weed control at 125 g/ha: 125 g ai/ha; for pest or weed control at 500 g/ha: 500 g ai/ha
In short: as §2

blackgrass [4] = experiment: Test A preemergence; assay type: in vivo, Alopecurus myosuroides; conditions: Alopecurus myosuroides, pre-emergence, 240 h, read-out: Plant response rating, Blackgrass; for pest or weed control at 125 g/ha: 125 g ai/ha; for pest or weed control at 500 g/ha: 500 g ai/ha
In short: as §2

[5] = visual injury after 10 days, 0 to 100 scale, 0 is no effect, 100 is complete control
[6] = visual injury, read-out: Plant response rating, Kochia
[7] = postemergence, 10 days, visual injury, 0 to 100 scale (0 no effect, 100 complete control), read-out: Plant response rating, Blackgrass
[8] = visual injury, read-out: Plant response rating, Horseweed
[9] = 0 to 100 scale (0 no effect, 100 complete control), 10 days

Compound	pest or weed control at 250 g/ha (ducksalad) [%]	Corn plant response rating (crop injury, 0 = no effect, 100 = complete kill) at 500 g/ha (corn; visual injury) [%]	pest or weed control at 500 g/ha (pigweed, palmer) [%]	pest or weed control at 125 g/ha (kochia [1]; [5]) [%]	plant injury at 250 g/ha (rice) [%]	pest or weed control at 125 g/ha (oat, wild; [5]) [%]	pest or weed control at 500 g/ha (kochia [2]; [6]) [%]	pest or weed control at 125 g/ha (foxtail, giant; [5]) [%]	pest or weed control at 125 g/ha (goosegrass; [5]) [%]	pest or weed control at 500 g/ha (horseweed; [8]) [%]	pest or weed control at 250 g/ha (barnyardgrass) [%]	pest or weed control at 125 g/ha (ryegrass, Italian; [5]) [%]	pest or weed control at 125 g/ha (blackgrass [4]; [5]) [%]	further results
C[C@H]1CN(C(=O)c2cccc(-c3cnn(C)n3)c2)c2cccc(Cl)c2O1 [Compound 127, [(2S)-8-Chloro-2,3-dihydro-2-methyl-4H-1,4-benzoxazin-4-yl][3-(2-methyl-2H-1,2,3-triazol-4-yl)phenyl]methanone]	0	50	90	0	0	0	90	90	60	0	0	20	20	plant injury at 125 g/ha (corn; 125 g ai/ha, read-out: Corn plant response rating): 20%; pest or weed control at 125 g/ha (pigweed, palmer; 125 g ai/ha, read-out: Pigweed, Palmer plant response rating): 60%; pest or weed control at 500 g/ha (kochia [1]; [5]): 60%; pest or weed control at 500 g/ha (oat, wild; [5]): 20%; pest or weed control at 125 g/ha (kochia [2]; read-out: Kochia plant response rating): 60%; pest or weed control at 125 g/ha (blackgrass [3]; postemergence, 10 days, 0 to 100 scale (0 no effect, 100 complete control), read-out: Blackgrass plant response rating): 0%; pest or weed control at 500 g/ha (blackgrass [3]; [7]): 80%; pest or weed control at 500 g/ha (foxtail, giant; [5]): 100%; pest or weed control at 500 g/ha (goosegrass; [5]): 100%; pest or weed control at 125 g/ha (horseweed; read-out: Horseweed plant response rating): 0%; pest or weed control at 500 g/ha (ryegrass, Italian; [5]): 90%; pest or weed control at 500 g/ha (blackgrass [4]; [5]): 70%
Cc1ccc(-n2cnc(C(C)C)n2)cc1C(=O)N1C[C@H](C)Oc2c(Cl)cccc21 [Compound 73, [(2S)-8-Chloro-2,3-dihydro-2-methyl-4H-1,4-benzoxazin-4-yl][2-methyl-5-[3-(1-methylethyl)-1H-1,2,4-triazol-1-yl]phenyl]methanone]	70	70	90	100	20	80	100	100	100	50	45	90	70	Corn plant response rating (crop injury, 0 = no effect, 100 = complete kill) at 125 g/ha (corn; 125 g ai/ha, visual injury): 70%; pest or weed control at 500 g/ha (kochia [1]; [9]): 100%; pest or weed control at 500 g/ha (oat, wild; [9]): 90%; pest or weed control at 125 g/ha (kochia [2]; [6]): 90%; pest or weed control at 125 g/ha (blackgrass [3]; [7]): 90%; pest or weed control at 500 g/ha (blackgrass [3]; Postemergence, 0 to 100 scale, read-out: Plant response rating, Blackgrass): 90%; pest or weed control at 500 g/ha (foxtail, giant; [9]): 100%; pest or weed control at 500 g/ha (goosegrass; [9]): 100%; pest or weed control at 125 g/ha (horseweed; [8]): 30%; pest or weed control at 500 g/ha (ryegrass, Italian; [9]): 100%; pest or weed control at 500 g/ha (blackgrass [4]; [9]): 90%
